According to PMC10447463, “Data-mining unveils structure–property–activity correlation of viral infectivity enhancing self-assembling peptides” (Nature Communications, 2023):
Read-outs that look alike come from different tables or passages of the source.

What was measured:
TZM-bl cells = assay type: cell-based; settings: CellTiter-Glo, mean of n = 3 replicates; for viability 0.26 µM: peptide 0.26 µM; for viability 1.3 µM: peptide 1.3 µM; for viability 6.5 µM: peptide 6.5 µM
Procedure, shortened: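 Viability of TZM-bl cells (10,000 seeded) after 3 days with serially diluted peptides, measured by CellTiter-Glo luminescence. Values normalized to 100% metabolic activity; triplicates.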

[1] = Zeta-potential measurement; assay type: physicochemical; settings: for Zeta-pot. / mV: zeta potential of peptide, Fig S15 source data
Procedure, shortened: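 Readout: zeta potential (mV) derived by Smoluchowski from measured electrophoretic mobility. Preformed aggregates (1 mg/mL peptide, PBS pH 7.4, RT for 1 d) were diluted into dilute KCl electrolyte (1 mM) shortly before analysis.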

[2] = Turbidity, derived count rate of scattered light; assay type: physicochemical; settings: for Log Count Rate: log of derived count rate; for Count Rate: turbidity
Procedure, shortened: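 Samples: 1 mg/mL in PBS pH 7.4 (from DMSO), 1 d at RT, then diluted in 1 mM KCl immediately before measurement. Triplicates, two independent runs averaged.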

[3] = category derived from the zeta potential
[4] = Fig S8 panels A, C, asymmetric log errors
[5] = Fig S8 panels B, D, derived count rate of scattered light
[6] = category 1 or 0 derived from the count rate, key not given
[7] = derived count rate of scattered light
[8] = derived count rate of scattered light, mean, std deviation in next column
[9] = derived count rate of scattered light, mean, std deviation in separate column
[10] = category 1 or 0 from count rate, key not given

Substance | viability 0.26 µM (TZM-bl cells) | viability 1.3 µM (TZM-bl cells) | viability 6.5 µM (TZM-bl cells) | Zeta Pot. / mV [1] [mV] | Zeta category ( +1 = if > 4 mV;-1 = if < -4 mV; 0 = -4mV to 4 mV) [1] | Zeta Pot. / mV ([1]; mean, Std Zeta in next column) [mV] | Zeta Pot. / mV ([1]; mean, Std in separate column) [mV] | Zeta-pot. / mV [1] [mV] | Log Count Rate ([2]; Fig S8 panels B, D) | Count Rate [2, 5] | Zeta Count Rate Category ([2]; category 1 / 0, no key given) | Zeta Count Rate / kcps [2, 7] [kcps] | Zeta Count Rate / kcps [2, 8] [kcps] | Zeta Count Rate / kcps [2, 9] [kcps] | Zeta category ( +1 = if > 4 mV;-1 = if < -4 mV; 0 = -4mV to 4 mV) ([1]; category from zeta potential) | Zeta Count Rate Category [2, 10] | Zeta Count Rate Category ([2]; category 1/0, no key printed) | also measured
CKFKQFFNM [CK14] | 126.1 | 113.2 | 106.7 | 15.2 | 1 (+1 = if > 4 mV) | 15.2 | 15.2 | 15.2 | 4.436 | 27264.3 | 1 | 27264.3 | 27264.3 | 27264.3 |  |  |  | Zeta category ( +1 = if > 4 mV;-1 = if < -4 mV; 0 = -4mV to 4 mV) [1, 3]: 1 (+1 = if > 4 mV); Log Count Rate [2, 4]: 4.436; Zeta Count Rate Category [2, 6]: 1
CKFKQFFNMWQ [CK13] | 122.3 | 108 | 88.49 | 8.563 | 1 (+1 = if > 4 mV) | 8.563 | 8.563 | 8.563 |  |  | 1 | 8210 | 8210 | 8210 | 1 (+1 = if > 4 mV) | 1 |  | 
CKWKWQW [KB4] | 110.3 | 107 | 96.91 |  | 1 (+1 = if > 4 mV) | 14.7 |  | 14.7 | 3.876 | 7511.27 |  |  | 7511 |  |  |  | 1 | Log Count Rate [2, 4]: 3.876
CQFQFQF [QBL4] | 110.4 | 111.2 | 99.59 |  | -1 (-1 = if < -4 mV) | -24.8 |  | -24.8 | 3.899 | 7928.97 |  |  | 7929 |  |  |  | 1 | Log Count Rate [2, 4]: 3.899
CRFRFQF [CN10] | 93.96 | 90.72 | 89.78 |  | 0 (0 = -4mV to 4 mV) | -2.097 |  | -2.097 |  |  |  |  | 390.5 |  |  |  | 1 | 
HHHHKIKIKIKIYYYY [TM6] | 112.4 | 103.8 | 86.78 | 13.2 | 1 (+1 = if > 4 mV) | 13.2 |  | 13.2 | 4.107 | 12792.5 | 1 | 12792.53333 | 12792.53333 |  |  |  |  | Zeta category ( +1 = if > 4 mV;-1 = if < -4 mV; 0 = -4mV to 4 mV) [1, 3]: 1 (+1 = if > 4 mV); Log Count Rate [2, 4]: 4.107; Zeta Count Rate Category [2, 6]: 1
KAKAQA [JJA2 / TM153] | 119.1 | 118.6 | 109.1 |  | -1 (-1 = if < -4 mV) | -14.08 | -14.08 | -14.08 |  |  |  |  | 20.93 | 20.93 | -1 (-1 = if < -4 mV) | 0 | 0 | 
KFKFQFW [TM71] | 107.5 | 104.2 | 102.2 | 6.49 | 1 (+1 = if > 4 mV) | 6.49 | 6.49 | 6.49 |  |  | 1 | 121.9 | 121.9 | 121.9 |  |  |  | Zeta category ( +1 = if > 4 mV;-1 = if < -4 mV; 0 = -4mV to 4 mV) [1, 3]: 1 (+1 = if > 4 mV); Zeta Count Rate Category [2, 6]: 1
KIKIKIKIYYYY [JR7] | 98.76 | 92.93 | 78.89 |  |  | 13.3 |  | 13.3 |  |  |  |  | 9918 |  |  |  |  | Zeta category ( +1 = if > 4 mV;-1 = if < -4 mV; 0 = -4mV to 4 mV) [1, 3]: 1 (+1 = if > 4 mV); Zeta Count Rate Category [2, 6]: 1
KIKIKIQINMWQ [VH9] | 103.6 | 97.29 | 82.19 |  |  | 13.1 |  | 13.1 |  |  |  |  | 1603.1 |  | 1 (+1 = if > 4 mV) | 1 |  | 
KIKIQIC [TM112 / CN11] | 99.13 | 101.3 | 97.07 | 19.93 | 1 (+1 = if > 4 mV) | 19.93 |  | 19.93 | 2.992 | 980.67 | 1 | 980.7 | 980.7 |  | 1 (+1 = if > 4 mV) | 1 |  | Zeta category ( +1 = if > 4 mV;-1 = if < -4 mV; 0 = -4mV to 4 mV) [1, 3]: 1 (+1 = if > 4 mV); Log Count Rate [2, 4]: 2.992; Zeta Count Rate Category [2, 6]: 1
KIKQIINM [JGA2] | 123.3 | 117.7 | 101.1 |  | 1 (+1 = if > 4 mV) | 16.3 | 16.3 | 16.3 |  |  |  |  | 2481 |  | 1 (+1 = if > 4 mV) | 1 |  | Zeta Count Rate / kcps ([2]; derived count rate from zeta measurement, mean): 2481 kcps; Zeta Count Rate Category ([2]; key not given): 1
QCKAKAQANMWQ [CK22] | 96.23 | 96.71 | 85.72 |  | -1 (-1 = if < -4 mV) | -8.05 | -8.05 | -8.05 |  |  |  |  | 427.5 | 427.5 | -1 (-1 = if < -4 mV) | 1 | 1 | 
QCKFKFQF [CK9] | 104.7 | 139.5 | 96.02 |  | 1 (+1 = if > 4 mV) | 12.2 | 12.2 | 12.2 |  |  |  |  | 2669 | 2669 | 1 (+1 = if > 4 mV) | 1 | 1 | 
QCKFKFQFNMWQ [CK7] | 107 | 97.9 | 88.11 |  | 1 (+1 = if > 4 mV) | 21.07 | 21.07 | 21.07 |  |  |  |  | 1208 | 1208 | 1 (+1 = if > 4 mV) | 1 | 1 | 
QCKFKQFFNMWQ [CK10] | 119.6 | 108.9 | 99.32 | 9.587 | 1 (+1 = if > 4 mV) | 9.587 | 9.587 | 9.587 | 4.277 | 18911.4 | 1 | 18911.36667 | 18911.36667 | 18911.36667 | 1 (+1 = if > 4 mV) | 1 |  | 
QCKIKIQI [CK3] | 95.48 | 97.81 | 91.95 |  | 1 (+1 = if > 4 mV) | 9.52 | 9.52 | 9.52 |  |  |  |  | 12426.83333 | 12426.83333 | 1 (+1 = if > 4 mV) | 1 | 1 | 
